Data published in PubChem BioAssay (NCI).
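Exposure lasted 48 hours, with cells grown in 96-well plates and compounds tested at five concentrations. TGI denotes the concentration required for complete inhibition of growth.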

Key:
Test in all cases: inhibition of tumour cell growth, NCI panel, 48 h
[1] = tested on: BT-549 breast
[2] = tested on: CAKI-1 renal
[3] = tested on: HCC-2998 colon
[4] = tested on: HOP-62 NSCLC
[5] = tested on: HOP-92 NSCLC
[6] = tested on: HT29 colon
[7] = tested on: MDA-MB-435
[8] = tested on: NCI-H23 lung
[9] = tested on: OVCAR-5 ovarian
[10] = tested on: SF-539 CNS
[11] = tested on: SK-OV-3 ovarian
[12] = tested on: SNB-19 CNS
[13] = tested on: HS 578T breast
[14] = tested on: KM12 colon
[15] = tested on: NCI-H460 lung
[16] = tested on: NCI/ADR-RES ovarian
[17] = tested on: OVCAR-8 ovarian
[18] = tested on: SF-268 CNS

SMILES	TGI [1] [µM]	TGI [2] [µM]	TGI [3] [µM]	TGI [4] [µM]	TGI [5] [µM]	TGI [6] [µM]	TGI [7] [µM]	TGI [8] [µM]	TGI [9] [µM]	TGI [10] [µM]	TGI [11] [µM]	TGI [12] [µM]	TGI [13] [µM]	TGI [14] [µM]	TGI [15] [µM]	TGI [16] [µM]	TGI [17] [µM]	TGI [18] [µM]
CN1C(=O)C(O)C[C@@H]1c1ccc(F)cc1 (stereo partly drawn)	> 100	> 100	> 100	> 100	> 100	> 100	> 100	> 100	> 100	> 100	> 100	> 100						
C/C(CC(O)(C(F)(F)F)C(F)(F)F)=N/Nc1ccc([N+](=O)[O-])cc1[N+](=O)[O-]		> 10	> 10	9.15	4.7	> 10	> 10	7.27		> 10	6.3	> 10	7.85	> 10	> 10	> 10	> 10	> 10
O=C(CC(C(=O)c1cccs1)c1ccccc1)c1ccccc1O (stereo not drawn)	> 100	> 67.3	> 100	> 48.1	> 38.9	> 100		> 100	> 100	> 100	> 100	> 100	> 22.9	> 100	> 100	> 25.3	> 100	> 35.1
CC1CC/C(=C\c2ccc(F)cc2)C2=C1C(c1ccc(F)cc1)n1c(s/c(=C\c3ccc(Cl)cc3)c1=O)=N2 (stereo not drawn)		> 100		> 100	> 100	> 100	> 100		> 100		> 100	> 100	> 100	> 100			> 100	> 100
Cc1ccc(S(=O)(=O)NC(=O)NCC(=O)O)cc1	> 100			> 100	> 100	> 100		> 100	> 100	> 100	> 100	> 100	> 100	> 100	> 100	> 100	> 100	> 100
COc1cc2c(cc1OC)C(=O)N1CCCC1C(=O)S2 (stereo not drawn)			> 100	> 100	> 100			> 100	> 100	> 100	> 100	> 100		> 100	> 100		> 100	> 100
Cc1cc2nc3c(C#N)c4c(c(Nc5ccc(Cl)cc5)n3c2cc1C)CCC4	44.8	41.4		> 100	47.8	32	> 100	57.2	36.3	48.7	> 100			> 100		48.1	35.5	33.6
CC1(C)O[C@@H](CP(c2ccc3ccccc3c2)c2ccc3ccccc3c2)[C@H](CP(c2ccc3ccccc3c2)c2ccc3ccccc3c2)O1	> 100	> 100	> 100	> 100		> 100	> 100	> 100	> 100		> 100	> 100		> 100	> 100	> 100	> 100	> 100
